Where no end group is shown, it is not given here.

Experiment [1] concerns the target T1, hTS enzyme (human Thymidylate synthase) (Homo sapiens, UniProt P04818).
T1 construct: made in house; host or cells: E. coli (printed as 'BL21 strain DH5α'), vector pQE80L
The experiment is described as follows: Peptidic inhibitor Ki value determination vs dUMP and vs mTHF. Type of experiment: biochemical. The following applies: Lineweaver-Burk analysis, FIG. 4.

Another experiment relates to A2780 cells. The experiment is described as follows: Cell growth assay (crystal violet dye). It is filed as cell-based, human. The note with it: 10 μM, FIG. 7.

T1 sequence (P04818 with tags, fused parts or gaps): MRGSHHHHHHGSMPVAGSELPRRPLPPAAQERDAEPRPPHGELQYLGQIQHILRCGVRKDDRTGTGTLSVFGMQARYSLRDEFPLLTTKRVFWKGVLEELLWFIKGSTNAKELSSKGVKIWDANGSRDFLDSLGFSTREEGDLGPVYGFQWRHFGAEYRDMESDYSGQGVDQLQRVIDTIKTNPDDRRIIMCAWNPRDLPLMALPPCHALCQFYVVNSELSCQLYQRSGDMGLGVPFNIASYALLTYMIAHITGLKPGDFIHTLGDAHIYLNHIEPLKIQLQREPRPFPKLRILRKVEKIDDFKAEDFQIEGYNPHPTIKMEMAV
Description for A2780 cells: Cultures were equilibrated with humidified 5% CO2 in air at 37° C.
Cells were seeded into 24-well plates and allowed to attach overnight. Peptides were delivered into cells by means of a peptide delivery system, following the procedures indicated by the manufacturer. On selected days, after removal of the tissue culture medium, cell growth was determined by a modification of the crystal violet dye assay. The extracted dye was proportional to cell number.

Take DFIHTLGD [SEQ ID NO: 1]: in experiment [1], the “type of inhibition (kinetic data)” value is “competitive inhibition pattern”.

On to YVVNSELS [SEQ ID NO: 44], for which the “relative activity against A2780 cells” value with A2780 cells was “particularly active”.

The record behind these values is US8916679B2, “Peptides binding to the dimer interface of thymidylate synthase for the treatment of cancer” (Universita′ degli Studi di Modena e Reggio Emilia, priority 2009, dated 2014).
